According to patent US4634700A, “1,3-dioxolanyl derivatives, a process for their preparation, their use and pharmaceutical preparations containing these compounds” (Ludwig Heumann & Co., GmbH, priority 1984, dated 1987):
≈ marks a conversion by molar mass, not a printed value.

Legend:
Experiment in all cases: Growth inhibition of yeast, IC 50% determination
Format in all cases: cell-based
[1] = tested on: Cryptococcus neoformans 2; conditions: Cryptococcus neoformans 2 (pathogen +)
Text: (§1) One method of determining the microbiological activity of the compounds according to the invention on yeasts is the determination of the inhibitory concentration 50% (IC 50%).

Hansenula anomala = Hansenula anomala (pathogen -)
Text: as §1

Rhodotorula spec. = Rhodotorula spec. (pathogen -)
Text: as §1

Cand. albicans = conditions: Candida albicans; Cand. albicans (pathogen +)
Text: as §1

Sacch. cerevisiae 1 = conditions: Saccharomyces cerevisiae; Sacch. cerevisiae 1 (pathogen (+))
Text: as §1

Sacch. rouxii = Sacch. rouxii (pathogen (+))
Text: as §1

Cand. parapsilosis = conditions: Lodderomyces parapsilosis; Cand. parapsilosis (pathogen +)
Text: as §1

Geotrichum capitum = Geotrichum capitum (pathogen +)
Text: as §1

Sacch. fragilis = Sacch. fragilis (pathogen (+))
Text: as §1

Sacch. uvarum = Sacch. uvarum (pathogen (+))
Text: as §1

[2] = tested on: Cryptococcus neoformans 1; conditions: Cryptococcus neoformans 1 (pathogen +)
Text: as §1

Cand. krusei = conditions: Pichia kudriavzevii; Cand. krusei (pathogen +)
Text: as §1

Cand. pseudotropicalis = conditions: Kluyveromyces marxianus; Cand. pseudotropicalis (pathogen +)
Text: as §1

Metschnikowia pulch = Metschnikowia pulch (pathogen -)
Text: as §1

Sacch. cerevisiae 2 = conditions: Saccharomyces cerevisiae; Sacch. cerevisiae 2 (pathogen (+))
Text: as §1

Cand. curvata = Cand. curvata (pathogen +)
Text: as §1

IC50 [1]: 0.125 µg/mL (≈ 0.213 µM)
IC50 (Hansenula anomala): 0.00125 µg/mL (≈ 0.00213 µM)
IC50 (Rhodotorula spec.): 1.25 µg/mL (≈ 2.13 µM)
IC50 (Cand. albicans): 0.00125 µg/mL (≈ 0.00213 µM)
IC50 (Sacch. cerevisiae 1): 1.25 µg/mL (≈ 2.13 µM)
IC50 (Sacch. rouxii): 0.00125 µg/mL (≈ 0.00213 µM)
IC50 (Cand. parapsilosis): 0.0125 µg/mL (≈ 0.0213 µM)
IC50 (Geotrichum capitum): 0.125 µg/mL (≈ 0.213 µM)
IC50 (Sacch. fragilis): 0.0125 µg/mL (≈ 0.0213 µM)
IC50 (Sacch. uvarum): 1.25 µg/mL (≈ 2.13 µM)
IC50 [2]: 0.0125 µg/mL (≈ 0.0213 µM)
IC50 (Cand. krusei): 0.125 µg/mL (≈ 0.213 µM)
IC50 (Cand. pseudotropicalis): 0.00125 µg/mL (≈ 0.00213 µM)
IC50 (Metschnikowia pulch): 0.00125 µg/mL (≈ 0.00213 µM)
IC50 (Sacch. cerevisiae 2): 1.25 µg/mL (≈ 2.13 µM)
IC50 (Cand. curvata): 0.125 µg/mL (≈ 0.213 µM)
SMILES: CSC(=NC#N)N1CCN(c2ccc(OC[C@H]3CO[C@](Cn4ccnc4)(c4ccc(Cl)cc4Cl)O3)cc2)CC1 (relative stereo) [Example 2, cis-1-Cyanimino-methylthio-methylene-4-[4[[2-(2,4-dichlorophenyl)-2-(1H-imidazol-1-ylmethyl)-1,3-dioxolan-4-yl]-methoxy]-phenyl]-piperazine]
